Results taken from patent US11691992B2 (Anacor Pharmaceuticals, Inc., priority 2017, dated 2023).

Assays:
[1] = system: luciferase-expressing L. major parasites developing intracellularly inside RAW 264.7 macrophages; assay: Leishmania major intracellular amastigote assay in RAW 264.7 macrophages (luciferase); format: cell-based; conditions: RAW264.7, 96 hours, read-out: IC50: I Org. intracellular amastigote Growth L. major, 4 d
Outline: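 RAW 264.7 macrophages infected overnight with luciferase-expressing L. major promastigotes, washed of extracellular parasites, then exposed to two-fold compound dilutions (final 0.5-10,000 ng/ml) for 96 h at 37° C, 5% CO2. Luciferin luminescence after 30 min; IC50 by sigmoidal variable-slope regression.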

[2] = system: promastigote forms of L. major; assay: Leishmania major promastigote growth inhibition assay (Alamar Blue); format: cell-based; conditions: promastigotes, 44 hours + 4 hours Alamar Blue, read-out: IC50: I Org. promastigote Growth L. major, 2 d
Source text: Example 108. Leishmania major Promastigote Growth Inhibition Assay
The promastigote assay is a microtiter plate drug sensitivity prescreen assay used to determine antileishmanial activity of candidate drugs against promastigote forms of L. major. (Shadow et al., PLOS Neglected Tropical Diseases, 2009, e311.) Alamar Blue, or resazurin, is a non-fluorescent indicator dye that is converted to bright red-fluorescent resorufin via the activity of mitochondrial reductases. As the activity of mitochondrial reductases is reduced in cells that are dead or dying, and the intensity of the fluorescence is relative to cell number, a test compound that kills or inhibits growth of a particular target cell, such as L. major, will result in a lower production of fluorescent signal. Pre-dosed microtiter drug plates for use in the promastigote drug prescreen assay were produced using sterile 384-well black optical bottom tissue culture plates (Nunc Cat #12-565-344). Candidate drugs were diluted in dimethyl sulfoxide in four 96-well plates to either 10,000 ng/ml or 1,000 ng/ml, and 4.25 μL of diluted drug was subsequently dispensed into each well of a 384-well plate. Duplicate 384 well plates were made at each test concentration (10,000 ng/mL and 1,000 ng/mL) and amphotericin B was used as a batch control. The Tecan EVO Freedom liquid handling system (Tecan US, Inc., Durham, N.C.) was used to produce all drug assay plates and conduct all pipetting operations for this assay. L. major parasites were cultured in Schneider's medium (Lonza Cat #04-351Q) supplemented with 20% heat inactivated FBS (Invitrogen Cat #16140-089). Promastigotes in early log growth phase were harvested from culture, counted, suspended at 1.32×10^5 cells/mF and 5,000 promastigotes were dispensed into each well of the 384 well plate in a volume of 38.8 μL. The 384 well plates were subsequently incubated at 28° C. for 44 hours. 8.4 μF of Alamar Blue (Promega, Cat #G8081) was added to each well, the plates were subsequently incubated at 28° C. and 5% CO2 for 4 hours and then examined for the relative fluorescence units (RFU) per well using the Tecan Genios Plus (Tecan US, Inc., Durham, N.C.) with excitation set at 560 nm and emission set at 590 nm. The relative fluorescence from each well was used to determine the percent growth inhibition of each candidate compound tested. Compounds with 50% or greater inhibition of growth were selected for further analysis to determine IC50 values.

Question: How did the IC50 [1] turn out when `CC1OB(O)c2cc(NC(=O)c3cn(-c4ccccc4)nn3)ccc21` (stereo not shown) [Example 2] was run?
Answer: ≤ 1000 nM

Question: And the IC50 [2]?
Answer: < 600 nM

Question: With `O=C(Nc1ccc2c(c1)B(O)OC21CCC1)c1cn(-c2ccccc2)nn1` [Example 3, N-(1-hydroxy-1H-spiro[benzo[c][1,2]oxaborole-3,1′-cyclobutan]-6-yl)-1-phenyl-1H-1,2,3-triazole-4-carboxamide] as the compound, how does the IC50 [1] read?
Answer: ≤ 1000 nM

Question: What about the IC50 [2] of the same compound?
Answer: 600 to 2500 nM

Question: How did the IC50 [1] turn out when `Cc1c(C(=O)Nc2ccc3c(c2)B(O)OC32CCC2)nnn1-c1ccccc1` [Example 4, N-(1-hydroxy-1H-spiro[benzo[c][1,2]oxaborole-3,1′-cyclobutan]-6-yl)-5-methyl-1-phenyl-1H-1,2,3-triazole-4-carboxamide] was run?
Answer: ≤ 1000 nM

Question: And the IC50 [2]?
Answer: 600 to 2500 nM

Question: How did the IC50 [1] turn out when `CC1OB(O)c2cc(NC(=O)c3cn(-c4ccc(F)cc4)nn3)ccc21` (stereo not shown) [Example 5] was run?
Answer: ≤ 1000 nM

Question: And the IC50 [2]?
Answer: 600 to 2500 nM

Question: How did the IC50 [1] turn out when `Cc1c(C(=O)Nc2ccc3c(c2)B(O)OC3C)nnn1-c1ccc(F)cc1` (stereo not shown) [Example 6, 1-(4-fluorophenyl)-N-(1-hydroxy-3-methyl-1,3-dihydrobenzo[c][1,2]oxaborol-6-yl)-5-methyl-1H-1,2,3-triazole-4-carboxamide] was run?
Answer: ≤ 1000 nM

Question: And the IC50 [2]?
Answer: 600 to 2500 nM

Question: How did the IC50 [1] turn out when `O=C(Nc1ccc2c(c1)B(O)OC21CCC1)c1cn(-c2ccc(F)cc2)nn1` [Example 7, 1-(4-fluorophenyl)-N-(1-hydroxy-1H-spiro[benzo[c][1,2]oxaborole-3,1′-cyclobutan]-6-yl)-1H-1,2,3-triazole-4-carboxamide] was run?
Answer: 1100 to 9900 nM

Question: What about the IC50 [2] of the same compound?
Answer: 2510 to 20000 nM

Question: `O=C(Nc1ccc2c(c1)B(O)OC21CCC1)c1cn(-c2cccnc2)nn1` [Example 8, N-(1-hydroxy-1H-spiro[benzo[c][1,2]oxaborole-3,1′-cyclobutan]-6-yl)-1-(pyridin-3-yl)-1H-1,2,3-triazole-4-carboxamide] was tested. Which IC50 [1] did it give?
Answer: 10000 to 50000 nM

Question: And the IC50 [2]?
Answer: 2510 to 20000 nM

Question: What does the source list for `Cc1c(C(=O)Nc2ccc3c(c2)B(O)OC32CCC2)nnn1-c1ccc(F)cc1` [Example 9, 1-(4-fluorophenyl)-N-(1-hydroxy-1H-spiro[benzo[c][1,2]oxaborole-3,1′-cyclobutan]-6-yl)-5-methyl-1H-1,2,3-triazole-4-carboxamide]?
Answer: IC50 [1]: 10000 to 50000 nM; IC50 [2]: 600 to 2500 nM

Question: How did the IC50 [1] turn out when `Cc1ccc(-n2cc(C(=O)Nc3ccc4c(c3)B(O)OC4)nn2)cc1` [Example 10, N-(1-hydroxy-1,3-dihydrobenzo[c][1,2]oxaborol-6-yl)-1-(p-tolyl)-1H-1,2,3-triazole-4-carboxamide] was run?
Answer: ≤ 1000 nM

Question: And the IC50 [2]?
Answer: < 600 nM

Question: What does the source list for `Cc1ccc(-n2nnc(C(=O)Nc3ccc4c(c3)B(O)OC4)c2C)cc1` [Example 11, N-(1-hydroxy-1,3-dihydrobenzo[c][1,2]oxaborol-6-yl)-5-methyl-1-(p-tolyl)-1H-1,2,3-triazole-4-carboxamide]?
Answer: IC50 [1]: 1100 to 9900 nM; IC50 [2]: < 600 nM

Question: `CC1OB(O)c2cc(NC(=O)c3cn(-c4cccnc4)nn3)ccc21` (stereo not shown) [Example 12, N-(1-hydroxy-3-methyl-1,3-dihydrobenzo[c][1,2]oxaborol-6-yl)-1-(pyridin-3-yl)-1H-1,2,3-triazole-4-carboxamide] was tested. Which IC50 [1] did it give?
Answer: 1100 to 9900 nM

Question: And the IC50 [2]?
Answer: 2510 to 20000 nM

Question: Which results are given for `Cc1ccc(-n2nnc(C(=O)Nc3ccc4c(c3)B(O)OC4C)c2C)cc1` (stereo not shown) [Example 13, N-(1-hydroxy-3-methyl-1,3-dihydrobenzo[c][1,2]oxaborol-6-yl)-5-methyl-1-(p-tolyl)-1H-1,2,3-triazole-4-carboxamide]?
Answer: IC50 [1]: 1100 to 9900 nM; IC50 [2]: 600 to 2500 nM

Question: With `Cc1c(C(=O)Nc2ccc3c(c2)B(O)OC3C)nnn1-c1cccnc1` (stereo not shown) [Example 14] as the compound, how does the IC50 [1] read?
Answer: 1100 to 9900 nM

Question: What about the IC50 [2] of the same compound?
Answer: 2510 to 20000 nM

Question: `Cc1ccc(-n2cc(C(=O)Nc3ccc4c(c3)B(O)OC43CCC3)nn2)cc1` [Example 15] was tested. Which IC50 [1] did it give?
Answer: 10000 to 50000 nM

Question: And the IC50 [2]?
Answer: 2510 to 20000 nM

Question: With `Cc1ccc(-n2nnc(C(=O)Nc3ccc4c(c3)B(O)OC43CCC3)c2C)cc1` [Example 16, N-(1-hydroxy-1H-spiro[benzo[c][1,2]oxaborole-3,1′-cyclobutan]-6-yl)-5-methyl-1-(p-tolyl)-1H-1,2,3-triazole-4-carboxamide] as the compound, how does the IC50 [1] read?
Answer: 10000 to 50000 nM

Question: And the IC50 [2]?
Answer: 600 to 2500 nM

Question: How did the IC50 [1] turn out when `Cc1c(C(=O)Nc2ccc3c(c2)B(O)OC32CCC2)nnn1-c1cccnc1` [Example 17, N-(1-hydroxy-1H-spiro[benzo[c][1,2]oxaborole-3,1′-cyclobutan]-6-yl)-5-methyl-1-(pyridin-3-yl)-1H-1,2,3-triazole-4-carboxamide] was run?
Answer: 10000 to 50000 nM

Question: And the IC50 [2]?
Answer: 2510 to 20000 nM

Question: `Cc1ccc(-n2cc(C(=O)Nc3ccc4c(c3)B(O)OC4C)nn2)cc1` (stereo not shown) [Example 18, N-(1-hydroxy-3-methyl-1,3-dihydrobenzo[c][1,2]oxaborol-6-yl)-1-(p-tolyl)-1H-1,2,3-triazole-4-carboxamide] was tested. Which IC50 [1] did it give?
Answer: ≤ 1000 nM

Question: And the IC50 [2]?
Answer: 600 to 2500 nM

Question: For `COc1ccc(-n2nnc(C(=O)Nc3ccc4c(c3)B(O)OC4C)c2C)cc1` (stereo not shown) [Example 19, N-(1-hydroxy-3-methyl-1,3-dihydrobenzo[c][1,2]oxaborol-6-yl)-1-(4-methoxyphenyl)-5-methyl-1H-1,2,3-triazole-4-carboxamide], which IC50 [1] is on record?
Answer: ≤ 1000 nM

Question: What about the IC50 [2] of the same compound?
Answer: 600 to 2500 nM

Question: What does the source list for `COc1ccc(-n2nnc(C(=O)Nc3ccc4c(c3)B(O)OC43CCC3)c2C)cc1` [Example 20, N-(1-hydroxy-1H-spiro[benzo[c][1,2]oxaborole-3,1′-cyclobutan]-6-yl)-1-(4-methoxyphenyl)-5-methyl-1H-1,2,3-triazole-4-carboxamide]?
Answer: IC50 [1]: 10000 to 50000 nM; IC50 [2]: < 600 nM

Question: `COc1ccc(-n2cc(C(=O)Nc3ccc4c(c3)B(O)OC4)nn2)cc1` [Example 21, N-(1-hydroxy-1,3-dihydrobenzo[c][1,2]oxaborol-6-yl)-1-(4-methoxyphenyl)-1H-1,2,3-triazole-4-carboxamide] was tested. Which IC50 [1] did it give?
Answer: ≤ 1000 nM

Question: And the IC50 [2]?
Answer: < 600 nM

Question: Which results are given for `COc1ccc(-n2cc(C(=O)Nc3ccc4c(c3)B(O)OC4C)nn2)cc1` (stereo not shown) [Example 22, N-(1-hydroxy-3-methyl-1,3-dihydrobenzo[c][1,2]oxaborol-6-yl)-1-(4-methoxyphenyl)-1H-1,2,3-triazole-4-carboxamide]?
Answer: IC50 [1]: ≤ 1000 nM; IC50 [2]: < 600 nM

Question: With `CC1OB(O)c2cc(NC(=O)c3cn(-c4ccccn4)nn3)ccc21` (stereo not shown) [Example 23, N-(1-hydroxy-3-methyl-1,3-dihydrobenzo[c][1,2]oxaborol-6-yl)-1-(pyridin-2-yl)-1H-1,2,3-triazole-4-carboxamide] as the compound, how does the IC50 [1] read?
Answer: ≤ 1000 nM

Question: What about the IC50 [2] of the same compound?
Answer: < 600 nM

Question: With `Cc1c(C(=O)Nc2ccc3c(c2)B(O)OC3C)nnn1-c1ccccn1` (stereo not shown) [Example 24, N-(1-hydroxy-3-methyl-1,3-dihydrobenzo[c][1,2]oxaborol-6-yl)-5-methyl-1-(pyridin-2-yl)-1H-1,2,3-triazole-4-carboxamide] as the compound, how does the IC50 [1] read?
Answer: ≤ 1000 nM

Question: And the IC50 [2]?
Answer: 600 to 2500 nM

Question: Which IC50 [1] does the source give for `O=C(Nc1ccc2c(c1)B(O)OC2)c1nnn(-c2ccccc2F)c1C(F)(F)F` [Example 67, 1-(2-Fluorophenyl)-N-(1-hydroxy-1,3-dihydrobenzo[c][1,2]oxaborol-6-yl)-5-(trifluoromethyl)-1H-1,2,3-triazole-4-carboxamide] here?
Answer: ≤ 1000 nM

Question: With `O=C(Nc1ccc2c(c1)B(O)OC2)c1nnn(-c2ccccc2)c1C(F)(F)F` [Example 68, N-(1-hydroxy-1,3-dihydrobenzo[c][1,2]oxaborol-6-yl)-1-phenyl-5-(trifluoromethyl)-1H-1,2,3-triazole-4-carboxamide] as the compound, how does the IC50 [1] read?
Answer: ≤ 1000 nM

Question: `O=C(Nc1ccc2c(c1)B(O)OC2)c1nnn(-c2cccc(F)c2)c1C(F)(F)F` [Example 69, 1-(3-Fluorophenyl)-N-(1-hydroxy-1,3-dihydrobenzo[c][1,2]oxaborol-6-yl)-5-(trifluoromethyl)-1H-1,2,3-triazole-4-carboxamide] was tested. Which IC50 [1] did it give?
Answer: ≤ 1000 nM

Question: `O=C(Nc1ccc2c(c1)B(O)OC2)c1nnn(-c2ccc(F)cc2)c1C(F)(F)F` [Example 70, 1-(4-Fluorophenyl)-N-(1-hydroxy-1,3-dihydrobenzo[c][1,2]oxaborol-6-yl)-5-(trifluoromethyl)-1H-1,2,3-triazole-4-carboxamide] was tested. Which IC50 [1] did it give?
Answer: ≤ 1000 nM

Question: `O=C(Nc1ccc2c(c1)B(O)OC2)c1nnn(-c2cccnc2)c1C(F)(F)F` [Example 71, N-(1-hydroxy-1,3-dihydrobenzo[c][1,2]oxaborol-6-yl)-1-(pyridin-3-yl)-5-(trifluoromethyl)-1H-1,2,3-triazole-4-carboxamide] was tested. Which IC50 [1] did it give?
Answer: ≤ 1000 nM

Question: Which IC50 [1] does the source give for `Cc1c(C(=O)Nc2ccc3c(c2)B(O)OC3)nnn1-c1ccccc1` [Example 89, A-(1-hydroxy-1,3-dihydrobenzo[c][1,2]oxaborol-6-yl)-5-methyl-1-phenyl-1H-1,2,3-triazole-4-carboxamide] here?
Answer: ≤ 1000 nM
